Experimental data: patent publication US20110190280A1, “Thiazole And Oxazole Kinase Inhibitors” (priority 2007, published 2011)
Where a name gives a salt, the structure may show the parent alone. Read-outs that look alike come from different tables or passages of the source.

Tests used:
[1] = system: SK-MEL-3 tumor cells; test: Cell growth inhibition assay (CellTiter-Glo), SK-MEL-3; conditions: Homo sapiens, SK-MEL3, 72 h, read-out: Activity in SK-MEL-3 Tumor Cells;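 note: human melanoma cells grown with compound for 3 days in 0.2% DMSO, total ATP read by luminescence as proxy for cell number, growth inhibition versus DMSO-treated wells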
Procedure: (§1) Cell Growth Inhibition Assays Human colon tumor cells (Colo205) were cultured in RPMI (Mediatech 50-020-PB) containing 10% FBS and 1% penicillin-streptomycin. […] Human melanoma cancer cells (A375-F11S) were cultured in RPMI (Mediatech 50-020-PB) containing 10% FBS, 1% sodium pyruvate, and 1% penicillin-streptomycin. Human colon cancer cells (HT-29) were cultured in high glucose DMEM (Mediatech 50-013-PB) containing 10% FBS and 1% penicillin-streptomycin. Human melanoma cancer cells (SK-MEL-3) were cultured in McCoy's 5A (50-025-PB) containing 15% FBS, and 1% penicillin-streptomycin. All cell lines were maintained at 37° C. in a humidified 5% CO2, 95% air incubator.
(§2) The next day, compounds were diluted as follows: For 96-well assays, 13.5 μl of compound in DMSO were diluted using nine (9) serial 1:3 dilutions of 4.5 μl in 9 μl of DMSO. Medium (270 μl/well of RPMI with 10% FBS and 1% penicillin-streptomycin) was added to the plates. Aliquots (7 μl) were added to cells in the final assay giving a final DMSO concentration of 0.2%. For 384-well assays, 15 μl of compound in DMSO were diluted using nine (9) serial 1:3 dilutions of 5 μl in 10 μl of DMSO, followed by a further dilution of 5 μl of compound with 95 μl of medium, of which 2 μl are added to cells in the final assay giving a final DMSO concentration of 0.2%. Cells were incubated at 37° C., 5% CO2 for 3 days.
(§3) Total ATP was measured (as a surrogate estimate of cell number) using CellTiter-Glo® (Promega G7571) reagent. Briefly, plates were removed from the incubator and allowed to equilibrate to room temperature for 30 minutes. CellTiter-Glo® (25 μl or 55 μl for 384-well or 96-well assays, respectively) reagent was added to each well and plates were shaken on an orbital plate shaker for 2 minutes. Plates were incubated without shaking for a further 30 minutes and read on an LJL Analyst GT reader in luminometer mode with an integration time of 0.5 seconds per well. Percent inhibition of cell growth was calculated relative to DMSO vehicle-treated control wells.

[2] = system: SK-MEL-28 tumor cells; test: Cell growth inhibition assay (CellTiter-Glo), SK-MEL-28; conditions: Homo sapiens, SK-MEL-28, 72 h, read-out: Activity in SK-MEL-28 Tumor Cells;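 note: luminescent total ATP as a proxy for cell number, threefold serial dilutions at 0.2% DMSO, percent growth inhibition versus DMSO vehicle control wells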
[3] = system: HT-29 tumor cells; test: Cell growth inhibition assay (CellTiter-Glo), HT-29; conditions: Homo sapiens, HT-29, 72 h, read-out: Activity in HT-29 Tumor Cells;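 note: ATP content read by luminescence as proxy for cell number, growth inhibition versus DMSO vehicle wells, 0.2% DMSO final, nine serial threefold compound dilutions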
Procedure: as §1, §2, §3

[4] = system: Colo205 tumor cells; test: Cell growth inhibition assay (CellTiter-Glo), Colo205; conditions: Homo sapiens, COLO 205, 72 h, read-out: Activity in Colo205 Tumor Cells;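 note: growth measured via total ATP luminescence (CellTiter-Glo) as a proxy for cell number, inhibition expressed against DMSO-treated control wells, 3-day exposure at 0.2% final DMSO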
[5] = system: A375P tumor cells; test: Cell growth inhibition assay (CellTiter-Glo), A375P; conditions: Homo sapiens, 72 h, read-out: Activity in A375P Tumor Cells;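 note: total ATP luminescence used as proxy for cell number, serial threefold compound dilutions at 0.2% DMSO, growth inhibition expressed versus DMSO vehicle-treated wells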
[6] = biological target: B-Raf (Homo sapiens, UniProt P15056); test: B-Raf Accelerated MEK ATPase assay (BRAMA); format: biochemical
Summary of the method: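 B-Raf activity read as intrinsic MEK ATPase: catalytic activated RAF with non-phosphorylated MEK drives ADP formation, coupled through pyruvate kinase and lactate dehydrogenase to NADH oxidation, independent of ERK phosphorylation.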

[7] = BRAMA enzyme assay, class by pIC50, read-out: B-Raf Activity

Compound | IC50 [1] [nM] | IC50 [2] [nM] | IC50 [3] [nM] | IC50 [4] [nM] | IC50 [5] [nM] | IC50 [6, 7] [nM] | IC50 [6] [nM]
CCNc1nc(-c2cc(OC)cc(OC)c2)c(-c2ccnc(Nc3ccc(O[C@H]4CCN(CCS(C)(=O)=O)C4)nc3)n2)s1 [Example 3, 4-[4-[3,5-Bis(methyloxy)phenyl]-2-(ethylamino)-1,3-thiazol-5-yl]-N-[6-({(3S)-1-[2-(methylsulfonyl)ethyl]-3-pyrrolidinyl}oxy)-3-pyridinyl]-2-pyrimidinamine] | < 500 | < 500 | < 500 | < 500 | < 500 | < 100 | –
CCNc1nc(-c2cc(C)cc(OC)c2)c(-c2ccnc(Nc3ccc(N4CC[C@@H](F)C4)nc3)n2)o1 [Example 81] | 500 to 5000 | 500 to 5000 | 500 to 5000 | 500 to 5000 | 500 to 5000 | < 100 | –
COc1cccc(-c2nc(CO)sc2-c2ccnc(Nc3ccc(OCCN4CCCC4)c(F)c3)n2)c1 [Example 60, {5-{2-[(3-Fluoro-4-{[2-(1-pyrrolidinyl)ethyl]oxy}phenyl)amino]-4-pyrimidinyl}-4-[3-(methyloxy)phenyl]-1,3-thiazol-2-yl}methanol] | < 500 | 500 to 5000 | < 500 | < 500 | 500 to 5000 | < 100 | –
CCNc1nc(-c2cccc(N(C)C)c2)c(-c2ccnc(Nc3ccc(N4CCOCC4)nc3)n2)s1 [Example 47, 4-[4-[3-(Dimethylamino)phenyl]-2-(ethylamino)-1,3-thiazol-5-yl]-N-[6-(4-morpholinyl)-3-pyridinyl]-2-pyrimidinamine] | < 500 | > 5000 | < 500 | 500 to 5000 | < 500 | < 100 | –
COc1cc(C)cc(-c2nc(C(C)C)oc2-c2ccnc(Nc3ccc(N4CCOCC4)nc3)n2)c1 [Example 99] | 500 to 5000 | 500 to 5000 | 500 to 5000 | 500 to 5000 | 500 to 5000 | < 100 | –
COc1cc(C)cc(-c2nc(C(C)C)sc2-c2ccnc(Nc3ccc(N4CCN(CCS(C)(=O)=O)CC4)c(F)c3)n2)c1 [Example 62, N-(3-Fluoro-4-{4-[2-(methylsulfonyl)ethyl]-1-piperazinyl}phenyl)-4-{2-(1-methylethyl)-4-[3-methyl-5-(methyloxy)phenyl]-1,3-thiazol-5-yl}-2-pyrimidinamine] | < 500 | 500 to 5000 | < 500 | 500 to 5000 | < 500 | < 100 | –
CCNc1nc(-c2cc(OC)cc(OC)c2)c(-c2ccnc(Nc3ccc(N4CCN5CCCCC5C4)c(F)c3)n2)s1 (stereo not drawn) [Example 115] | < 500 | 500 to 5000 | < 500 | < 500 | 500 to 5000 | < 100 | –
CCNc1nc(-c2cc(OC)cc(OC)c2)c(-c2ccnc(Nc3ccc(N4CCN(CCO)CC4)nc3)n2)o1 [Example 108] | 500 to 5000 | 500 to 5000 | 500 to 5000 | < 500 | 500 to 5000 | < 100 | –
CCc1nc(-c2cc(C)cc(CO)c2)c(-c2ccnc(Nc3ccc(N4CCN(S(C)(=O)=O)CC4)nc3)n2)s1 [Example 66, (3-{2-Ethyl-5-[2-({6-[4-(methylsulfonyl)piperazin-1-yl]pyridin-3-yl}amino)pyrimidin-4-yl]-1,3-thiazol-4-yl}-5-methylphenyl)methanol] | < 500 | 500 to 5000 | < 500 | < 500 | < 500 | < 100 | –
CCNc1nc(-c2cc(C)cc(OC)c2)c(-c2ccnc(Nc3ccc(N4CCN(CCF)CC4)c(F)c3)n2)o1 [Example 128] | 500 to 5000 | 500 to 5000 | 500 to 5000 | < 500 | 500 to 5000 | – | < 100
CCNc1nc(-c2cc(OC)cc(OC)c2)c(-c2ccnc(Nc3ccc(N4CCN(CCS(C)(=O)=O)CC4)c(F)c3)n2)o1 [Example 116] | < 500 | 500 to 5000 | 500 to 5000 | < 500 | 500 to 5000 | < 100 | –
COc1cc(OC)cc(-c2nc(NC3CC3)sc2-c2ccnc(Nc3ccc4c(c3)CN(C)CC4)n2)c1 [Example 15, N-{4-[4-[3,5-Bis(methyloxy)phenyl]-2-(cyclopropylamino)-1,3-thiazol-5-yl]-2-pyrimidinyl}-2-methyl-1,2,3,4-tetrahydro-7-isoquinolinamine] | < 500 | 500 to 5000 | 500 to 5000 | 500 to 5000 | 500 to 5000 | < 100 | –
CCNc1nc(-c2cc(OC)cc(OC)c2)c(-c2ccnc(Nc3ccc(N4CCN(S(C)(=O)=O)CC4)nc3)n2)s1 [Example 2, 4-[4-[3,5-bis(methyloxy)phenyl]-2-(ethylamino)-1,3-thiazol-5-yl]-N-{6-[4-(methylsulfonyl)-1-piperazinyl]-3-pyridinyl}-2-pyrimidinamine] | < 500 | < 500 | < 500 | < 500 | < 500 | < 100 | –
CCNc1nc(-c2cc(OC)cc(OC)c2)c(-c2ccnc(Nc3ccc(N4CCN(CCS(C)(=O)=O)CC4)c(F)c3)n2)s1 [Example 6, 4-[4-[3,5-Bis(methyloxy)phenyl]-2-(ethylamino)-1,3-thiazol-5-yl]-N-(3-fluoro-4-{4-[2-(methylsulfonyl)ethyl]-1-piperazinyl}phenyl)-2-pyrimidinamine trifluoroacetate] | < 500 | 500 to 5000 | < 500 | < 500 | < 500 | < 100 | –
CCc1nc(-c2cccc(CO)c2)c(-c2ccnc(Nc3ccc(N4CCOCC4)c(F)c3)n2)s1 [Example 67, {3-[2-Ethyl-5-(2-{[3-fluoro-4-(4-morpholinyl)phenyl]amino}-4-pyrimidinyl)-1,3-thiazol-4-yl]phenyl}methanol] | < 500 | 500 to 5000 | < 500 | 500 to 5000 | < 500 | < 100 | –
COc1cc(OC)cc(-c2nc(Nc3ccccc3)sc2-c2ccnc(Nc3ccc(OC4CCN(CCS(C)(=O)=O)CC4)c(F)c3)n2)c1 [Example 23, 4-[4-[3,5-Bis(methyloxy)phenyl]-2-(phenylamino)-1,3-thiazol-5-yl]-N-[3-fluoro-4-({1-[2-(methylsulfonyl)ethyl]-4-piperidinyl}oxy)phenyl]-2-pyrimidinamine hydrochloride] | < 500 | 500 to 5000 | < 500 | 500 to 5000 | 500 to 5000 | < 100 | –
COc1cc(OC)cc(-c2nc(NCCF)sc2-c2ccnc(Nc3ccc(OCCN4CCCC4)c(Cl)c3)n2)c1 [Example 21, 4-{4-[3,5-Bis(methyloxy)phenyl]-2-[(2-fluoroethyl)amino]-1,3-thiazol-5-yl}-N-(3-chloro-4-{[2-(1-pyrrolidinyl)ethyl]oxy}phenyl)-2-pyrimidinamine] | < 500 | 500 to 5000 | < 500 | 500 to 5000 | < 500 | < 100 | –
COc1cc(OC)cc(-c2nc(NC3CC3)sc2-c2ccnc(Nc3ccc(OCCN(C)C)c(Cl)c3)n2)c1 [Example 105] | < 500 | < 500 | < 500 | < 500 | < 500 | < 100 | –
CCNc1nc(-c2cc(OC)cc(OC)c2)c(-c2ccnc(Nc3ccc(N4CCN(CCF)CC4)c(F)c3)n2)o1 [Example 117] | 500 to 5000 | 500 to 5000 | 500 to 5000 | < 500 | 500 to 5000 | < 100 | –
CCNc1nc(-c2cc(OC)cc(OC)c2)c(-c2ccnc(Nc3ccc(N4CCN(CCF)CC4)nc3)n2)o1 [Example 112] | 500 to 5000 | 500 to 5000 | 500 to 5000 | < 500 | 500 to 5000 | < 100 | –
CCNc1nc(-c2cc(OC)cc(OC)c2)c(-c2ccnc(Nc3ccc(OCCN4CCOCC4)c(F)c3)n2)s1 [Example 13, 4-[4-[3,5-Bis(methyloxy)phenyl]-2-(ethylamino)-1,3-thiazol-5-yl]-N-(3-fluoro-4-{[2-(4-morpholinyl)ethyl]oxy}phenyl)-2-pyrimidinamine] | < 500 | 500 to 5000 | < 500 | 500 to 5000 | 500 to 5000 | < 100 | –
CCNc1nc(-c2cc(OC)cc(OC)c2)c(-c2ccnc(Nc3ccc(N4CCN(CCS(C)(=O)=O)CC4)nc3)n2)s1 [Example 1, 4-[4-[3,5-Bis(methyloxy)phenyl]-2-(ethylamino)-1,3-thiazol-5-yl]-N-(6-{4-[2-(methylsulfonyl)ethyl]-1-piperazinyl}-3-pyridinyl)-2-pyrimidinamine] | < 500 | 500 to 5000 | < 500 | < 500 | < 500 | < 100 | –
CCNc1nc(-c2cc(OC)cc(OC)c2)c(-c2ccnc(Nc3ccc(N4CCN(CCF)CC4)c(F)c3)n2)s1 [Example 8, 4-[4-[3,5-Bis(methyloxy)phenyl]-2-(ethylamino)-1,3-thiazol-5-yl]-N-{3-fluoro-4-[4-(2-fluoroethyl)-1-piperazinyl]phenyl}-2-pyrimidinamine] | < 500 | < 500 | < 500 | < 500 | 500 to 5000 | < 100 | –
